Results reported in US7279338B2, “Methods for determining cellular response to stimuli” (Cargill, Incorporated, priority 2004, dated 2007).
Where two headings read alike, the source gives them in different places. Each block holds one compound with its values, some of them ahead of it.

Assays:
[1] = system: taste bud cells in porcine taste tissue; assay: Multiphoton fluorescence intensity imaging of stimulated porcine taste tissue in flowing perfusing medium; assay type: cell-based
Protocol: Two papillae in close proximity to one another were loaded in this manner. The papillae were extracted from the larger piece of tissue and placed into the open chamber configuration (this work was done prior to that using the closed, gasketed chamber). The tissue was repeatedly stimulated with 20 mmol/L citric acid using the 1.0 mL/min flow rate and 1.0 mL sample loop, switched to the load position as time series data acquisition began. The imaging parameters were as follows: 400 Hz galvo scan rate, 2× zoom with 63× objective, 256×256 pixel image format, 2× frame average, 810 nm laser at 36%, and 0.5 Hz frame scan rate. The tissue was received at approximately 8:00 am, transported in oxygenated Tyrode's solution to the lab, loaded at approximately 10:00 am and imaged at approximately 11:00 am. Cells from two adjacent taste buds within the second papilla were imaged in xyzt mode at a depth of approximately 35 micrometers. […] The time series data were processed using the alignment tools development to address the tissue movement issues. […] However, the movement in this case was primarily in the x-y plane, and therefore the alignment algorithm provided sufficient alignment. […] However, the relative difference in emission and differences in slope due to photobleaching makes comparison between cells difficult. […]

[2] = read-out: KD for calcium; cited from earlier work
[3] = Calcium green-1 dextran dissociation constant from MP-FLIM lifetime and intensity data in CaEGTA calcium buffers; assay type: binding
Protocol: Calcium buffers (CaEGTA) and calcium green-1 dextran (CaGD) were purchased from Molecular Probes. The calcium buffers provide free Ca^+2 over a nanomolar to millimolar concentration range in a matrix closely matching the pH and ionic strength of the cytosol. The lifetimes and relative contributions of these bound and unbound decays are determined by fitting multi-exponential curves to the instrumental data. Buffer kit #2 (0-39 micromoles/L free Ca^+2) was used in this work to determine the response of calcium green dextran to low calcium concentrations. Initial work was done with Buffer kit #3, but the range of free Ca^+2 (0-1000 micromoles/L) was too high for the dye chosen. Calcium ion concentration is approximately 0.1 micromoles/L in resting cell's cytoplasm and in the increases to the micromolar range upon stimulus (Pollard, 2002).
Samples were analyzed in a random order during each experiment using the MP-FLIM system and a quartz solution cell. […] Each sample produced two full fields of view (256×256) where each image pixel contains a decay curve. As the calcium green dextran was present in bound and unbound forms, double exponential fits were performed using SPCImage (version 2.7.7238.0). The double exponential decays were calculated for each sample on the entire field of view, generating 65,536 values for each field of view. The average decay for each field of view was calculated as a sum of the per pixel lifetime values weighted by the amplitudes (contributions) of each lifetime to each pixel. Table 1 details the results for the calculation of the unbound dye fluorescence lifetime. The average τ1 from the measurements is 405.6 ps, with a sample standard variance of approximately 1.0 ps.
The balance of the calcium buffer data were analyzed using the SPCImage software under similar conditions as given in Table 1, with the exception that the short lifetime was fixed to 405.6 ps in the model parameters settings box. In addition, the zero Ca^+2 buffer average lifetimes were recalculated using the fixed short lifetime value. Due to instabilities in the software interface, the short lifetime was designated as τ2 in the fit parameters box. A second order polynomial fit of average lifetime in picoseconds versus calcium concentration in micromoles/L for a calcium concentration range from 0 to 0.602 micromoles/L yields the relationship: τavg=−3047 c^2+4472 c+601, R^2=0.9976; RMSE=30.9 ps.
A significant reported advantage of fluorescence lifetime measurements is that the dependence of fluorescence lifetime on calcium concentration is insensitive to dye concentration provided the dye itself is at low enough concentrations so as to not buffer the calcium ion in the cell or the cuvette. In order to test this property in the calcium green dextran system, additional sample sets were made up with 2.5-micromoles/L dye and 9.9-micromoles/L dye in the buffer solutions. The variations in lifetime data and intensity data with dye concentrations are given in FIG. 2 and FIG. 3, respectively. The lifetime data appears to be invariant with dye concentration, where the average standard deviation (variation in lifetime with dye concentration at each calcium concentration) for the lifetime data on the order or 25 ps. In contrast, the intensity variability is significant, where the intensity of the fluorescence is dependent upon the calcium concentration and the dye concentration.
Finally, calcium green-1 dissociation constants were calculated for the various dye concentrations using lifetime and intensity-based data sets.

[4] = system: taste cells in porcine taste tissue (fungiform papilla taste bud); assay: Multiphoton fluorescence lifetime imaging (MP-FLIM) of stimulated porcine taste tissue in static bath; assay type: cell-based; conditions: for response of taste cells to stimuli (calcium green lifetime imaging): bulk addition: 0.5 mL of 25-micromolar cycloheximide, then 0.5 mL of 1-millimolar sucralose, in deionized water
From the text: Fresh porcine taste tissue was procured in the prescribed manner from a local slaughterhouse and transported, after removal from the tongue, in chilled, oxygenated Tyrode's solution to the preparation laboratory. The tissue was affixed to a coated Petri dish and taste buds iontophoretically loaded (1.0 microampere) with calcium green dextran dye (1 mmol/L in DI water) via a drawn capillary pipette. Several taste pores were loaded on a papilla, with several papillae loaded overall, providing 3-5 taste buds loaded with dye. The tissue was mounted in a chamber and placed onto the microscope stage. The sample was imaged using the 63× water-dipping objective, 60% laser power at 810-nm excitation, in xzy mode (256×256 pixels) in order to image the taste bud and surface features at once in a longitudinal section. The photomultiplier tube gain on the FLIM system was set to 85% and the initial Leica settings (non-optimized) were used to capture FLIM images of the tissue over a 10-15 minute time course.
The same field of view was then imaged using the multiphoton lifetime imaging capability of the instrument. The optical conditions for lifetime mage collection are identical to intensity-based imaging, except that in photon counting mode the collection requires 30 seconds in this case for adequate signal to noise. The lifetimes were calculated by a double exponential fit of the decay curves and color-coded based on average lifetime per pixel. Red values are shorter lifetimes in this case. […] The shortest lifetime evident in this image is associated with the apical end of the taste cell directly below the pore. At rest, the average lifetime for all of the cells in the field of view is 1,634 picoseconds. The short lifetime component of the fit was set to 350 picoseconds, an estimate of the short lifetime component based on initial calcium calibrations in order to facilitate rapid fitting of the data for comparison.
The taste bud was exposed to several gross stimuli: cycloheximide and sucralose in deionized water. The purpose of this stimulus experiment was to determine if the bud would remain viable during the time course of a stimulus and if possible, to determine the presence of a gross response via lifetime imaging. The stimulants were applied via bulk addition to the chamber holding the tissue: 0.5 mL of 25-micromolar cycloheximide was first added after removal of 1 mL buffer; 0.5 mL of 1 -millimolar sucralose added after the cycloheximide stimulus and removal of additional 1 mL buffer. The MP-FLIM image data were collected at approximately 1-minute intervals using the same optical and exposure conditions used to generate the resting image described above. […]

Compound: O=C(O)CC(O)(CC(=O)O)C(=O)O [citric acid]
baseline corrected average fluorescence intensity per cell (intracellular calcium response) ([1]; 20 mmol/L citric acid, 1.0 mL/min flow, 1.0 mL sample loop, seven cells in field of view): strong response to the stimulus in cell 1 with lower magnitude responses in other cells | response to successive stimuli ([1]; three successive 20 mmol/L citric acid stimuli, 5 minutes artificial saliva between stimuli): decrease in response to subsequent stimulus

Kd ([3]; dye concentration 2.5 micromoles/L, read-out: Kd, Intensity Data): 482 nM | Kd ([3]; dye concentration 2.5 micromoles/L, read-out: Kd, Lifetime Data): 342 nM | Kd ([3]; dye concentration 5.0 micromoles/L, read-out: Kd, Intensity Data): 520 nM | Kd ([3]; dye concentration 5.0 micromoles/L, read-out: Kd, Lifetime Data): 329 nM | Kd ([3]; dye concentration 9.9 micromoles/L, read-out: Kd, Intensity Data): 382 nM | Kd ([3]; dye concentration 9.9 micromoles/L, read-out: Kd, Lifetime Data): 290 nM
Compound: calcium green-1 dextran
Kd [2]: ~540 nM

Compound: C[C@@H]1C[C@@H]([C@H](O)CC2CC(=O)NC(=O)C2)C(=O)[C@@H](C)C1 [cycloheximide]
response of taste cells to stimuli (calcium green lifetime imaging) [4]: taste cells responded to the stimuli

Compound: OC[C@H]1O[C@H](O[C@]2(CCl)O[C@H](CCl)[C@@H](O)[C@@H]2O)[C@H](O)[C@@H](O)[C@H]1Cl [sucralose]
calcium concentration surrounding the taste cells during stimulus ([4]; 0.5 mL of 1-millimolar sucralose, bulk addition): decreased | change of calcium green lifetime around the taste cells on stimulus ([4]; 0.5 mL of 1-millimolar sucralose, bulk addition after cycloheximide stimulus, images at about 1-minute intervals): significant shortening of the calcium green lifetime around the taste cells | response of taste cells to stimuli (calcium green lifetime imaging) [4]: taste cells responded to the stimuli
